“And” between values parts separate entries of the source, which are not always exact repeats. Identical values can stand only once.

The target in assay [1] is PLK4 (h) (Homo sapiens, UniProt O00444). In words: PLK-4 human kinase assay (SPA). Type of assay: biochemical. The conditions noted are these: read-out: PLK4 pIC50 (converted). In outline: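 Radiometric readout: 33P-labelled peptide captured on streptavidin SPA beads after EDTA stop, imaged by Leadseeker. Reaction ran 60 min at room temperature in Hepes pH 8.0 buffer. It contained 1 μM ATP with 2 nM [γ-33P]ATP, 10 μM biotinylated peptide and PLK4 (h) at 19 μg/ml.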
Chain of PLK4 (h) (O00444 whole entry): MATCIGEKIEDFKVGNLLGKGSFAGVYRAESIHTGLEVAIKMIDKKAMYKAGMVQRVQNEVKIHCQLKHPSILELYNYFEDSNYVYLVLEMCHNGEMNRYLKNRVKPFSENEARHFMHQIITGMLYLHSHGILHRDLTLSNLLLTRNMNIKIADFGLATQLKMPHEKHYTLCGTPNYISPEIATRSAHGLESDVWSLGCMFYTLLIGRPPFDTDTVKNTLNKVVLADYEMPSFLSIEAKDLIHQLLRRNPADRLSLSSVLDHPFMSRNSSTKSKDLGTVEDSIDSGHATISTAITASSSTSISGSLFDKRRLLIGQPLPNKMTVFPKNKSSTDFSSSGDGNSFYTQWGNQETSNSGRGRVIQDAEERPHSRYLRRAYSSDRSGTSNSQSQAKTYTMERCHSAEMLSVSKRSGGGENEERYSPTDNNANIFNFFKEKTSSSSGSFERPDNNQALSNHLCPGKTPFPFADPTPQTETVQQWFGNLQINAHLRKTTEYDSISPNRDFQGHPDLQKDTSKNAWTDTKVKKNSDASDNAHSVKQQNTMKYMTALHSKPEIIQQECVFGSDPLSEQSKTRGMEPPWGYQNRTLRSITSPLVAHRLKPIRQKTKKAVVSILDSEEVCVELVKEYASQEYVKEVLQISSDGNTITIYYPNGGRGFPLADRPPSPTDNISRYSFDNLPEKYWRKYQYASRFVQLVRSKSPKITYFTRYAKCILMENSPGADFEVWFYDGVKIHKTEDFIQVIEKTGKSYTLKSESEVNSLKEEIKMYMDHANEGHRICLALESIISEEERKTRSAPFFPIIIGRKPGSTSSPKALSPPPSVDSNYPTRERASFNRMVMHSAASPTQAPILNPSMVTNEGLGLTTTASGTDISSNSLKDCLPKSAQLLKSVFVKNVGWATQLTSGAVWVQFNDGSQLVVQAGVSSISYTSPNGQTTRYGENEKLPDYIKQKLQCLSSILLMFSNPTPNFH

Assay [2] deals with A549. In words: Cellular proliferation assay (Alamar blue), A549. The conditions noted are these: Homo sapiens, A549 cells, 72 hours with compound, 10% FCS, read-out: pIC50 A549 (converted). Format: cell-based. An outline of the steps: (§1)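 Proliferation was assessed over 72 h of compound treatment, following 24 h of seeding without compound, under 10% FCS, 37° C. and 5% CO2. Fluorescent resazurin product was measured and compared with control cells.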
Background: The colour change of resazurin is a common sign of viable cells or microbes.

Assay [3] deals with H460. In words: Cellular proliferation assay (Alamar blue), H460. Particulars: Homo sapiens, NCI-H460, H460 cells, 72 hours with compound, 10% FCS, read-out: pIC50 H460 (converted). Type of assay: cell-based. The method, then:
(§2) […] functional properties of these compounds was tested in cellular proliferation assays on a panel of different cell lines in the presence of 10% FCS serum (37° C. and 5% (v/v) CO2). In a first step these cells were seeded and incubated for 24 hours in the absence of compound. In the second step the cells were incubated for 72 hours with the compounds to be tested for 72 hours. The viable cell number was finally assessed in a standard Alamar blue cell viability assay.
(§3) The viable cell number was assessed by incubation for either 4 h (HCT-116, H1299, H460) 6 h (SKOV3, HT29, U87-MG, Colo205) or 24 h (A2780, PC3, MDA-MB-231, A549, MCF-7) with Alamar blue (Resazurin 9 μg/ml, K-Ferrocyanide 90 μM K-Ferricyanide 90 μM) and the converted fluorescent product was quantified on a fluorescent plate readed (544 nm/590 nm). Effect of the compounds is calculated as of on control cells.

Assay [4] relates to HCT-116. Put plainly: Cellular proliferation assay (Alamar blue), HCT-116. Format: cell-based. The conditions noted are these: Homo sapiens, HCT-116, 72 h, HCT-116 cells, 72 hours with compound, 10% FCS, read-out: pIC50 HCT-116 (converted). An outline of the steps:
as §1

Assay [5] relates to PC-3. In words: Cellular proliferation assay (Alamar blue), PC-3. Type of assay: cell-based. The conditions noted are these: Homo sapiens, PC-3, 72 h, PC-3 cells, 72 hours with compound, 10% FCS, read-out: pIC50 PC-3 (converted). An outline of the steps: as §1
Assay [6] concerns HT-29. In words: Cellular proliferation assay (Alamar blue), HT-29. Particulars: Homo sapiens, HT-29 cells, 72 hours with compound, 10% FCS, read-out: pIC50 HT-29 (converted). Format: cell-based. In outline: as §1
Assay [7] relates to MDA/MB231. Put plainly: Cellular proliferation assay (Alamar blue), MDA/MB231. Format: cell-based. The conditions noted are these: Homo sapiens, MDA-MB-231, 72 h, MDA/MB231 cells, 72 hours with compound, 10% FCS, read-out: pIC50 MDA/MB231 (converted). In outline:
as §1

Assay [8] relates to SKOV3. In words: Cellular proliferation assay (Alamar blue), SKOV3. Particulars: Homo sapiens, SK-OV-3, SKOV3 cells, 72 hours with compound, 10% FCS, read-out: pIC50 SKOV3 (converted). Type of assay: cell-based. An outline of the steps:
as §1

Assay [9] has as its system Colo205. Put plainly: Cellular proliferation assay (Alamar blue), Colo205. Format: cell-based. Particulars: Homo sapiens, COLO 205, Colo205 cells, 72 hours with compound, 10% FCS, read-out: pIC50 Colo205 (converted). An outline of the steps:
as §1

In assay [10] the test system is A431. Put plainly: Cellular proliferation assay (Alamar blue), A431. Format: cell-based. Particulars: Homo sapiens, A-431, A431 cells, 72 hours with compound, 10% FCS, read-out: pIC50 A431 (converted). The method, then: as §2, §3
For assay [11], the target named is AuroraB (h) (Homo sapiens, UniProt Q96GD4). In words: Aurora-B human kinase assay (SPA). Type of assay: biochemical. The conditions noted are these: read-out: AuroraB pIC50 (converted). An outline of the steps: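 33P-phosphorylated biotin-substrate captured on streptavidin PVT SPA beads after EDTA-containing stop and imaged on Leadseeker. Reaction: 60 min at room temperature, Hepes pH 7.5 with Mg2+/Mn2+. Conditions: 0.5 μM ATP plus 2.2 nM [γ-33P]ATP, 3 μM substrate, 0.5 μg/ml human AuroraB.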
Chain of AuroraB (h) (Q96GD4 whole entry): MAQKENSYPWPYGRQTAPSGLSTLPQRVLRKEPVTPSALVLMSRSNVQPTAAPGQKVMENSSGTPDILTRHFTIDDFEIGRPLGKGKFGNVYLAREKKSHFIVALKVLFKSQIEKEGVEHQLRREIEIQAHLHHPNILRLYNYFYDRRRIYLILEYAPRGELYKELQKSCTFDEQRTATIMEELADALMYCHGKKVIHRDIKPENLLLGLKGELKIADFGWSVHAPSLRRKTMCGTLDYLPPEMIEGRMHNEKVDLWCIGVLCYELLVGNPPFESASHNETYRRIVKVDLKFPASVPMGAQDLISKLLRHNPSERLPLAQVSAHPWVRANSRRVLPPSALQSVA

`COc1ccc2cc1OCCCC(=O)N(C)CCCNc1ncnc3c1/C(=C/N2)C(=O)N3` [Compound 9]: the IC50 is 55 nM and 52.5 nM in assay [1]; below 302 nM in [2]; 372 nM in assay [3]; 457 nM in assay [4]; 457 nM in assay [5]; 525 nM in [6]. For the same molecule, the IC50 is 1380 nM in assay [7]; 339 nM in assay [8]; 354 nM in [9]; 1450 nM in assay [10]; 50.1 nM and 51.3 nM in assay [11].
Turning to `COc1ccc2cc1OCCCCCC(=O)N1CCN(CC1)c1ncnc3c1/C(=C/N2)C(=O)N3` [Compound 18], the IC50 in assay [1] is 4790 nM; in assay [2] it was above 10000 nM; in assay [3], above 10000 nM; in assay [4], above 10000 nM; in [5], 2340 nM; in assay [6], above 10000 nM. Also, the IC50 was above 10000 nM in assay [7]; 2090 nM in [8]; above 10000 nM in assay [9]; above 10000 nM in assay [10]; above 10000 nM in [11].
Turning to `COc1ccc2cc1OCCCC(=O)N(C)CCCN(C)c1ncnc3c1/C(=C/N2)C(=O)N3` [Compound 31], the IC50 in assay [1] was 525 nM; in [2], 537 nM; in assay [3], 1000 nM; in assay [4] it was 1580 nM; in [5], 1660 nM; in [6], 2820 nM. Also, the IC50 in assay [7] was 1910 nM; in assay [8], 1350 nM; in [9], 1950 nM; in [10] it was above 10000 nM; in assay [11] it was 1380 nM and 1580 nM.
